Source: patent publication US20070015780A1, “Method of treating cancer with azaspirane compositions” (priority 2003, published 2007)
Counter-ions that a name gives are not always drawn.

Experiment: Excretion and recovery of radioactivity after single oral administration, target dose 1 mg free base/kg
Format: in vivo, male Sprague Dawley rats
Set-up: Excretion of Radioactivity, Urine / Excretion of Radioactivity, Cage Wash: unit not given beside the values
Conditions: for Recovery of Radioactivity, Carcass / Recovery of Radioactivity, GI Tract: at 168 hours
Source text: [^14C] N,N,-diethyl-8,8-dipropyl-2-azaspiro[4,5]decane-2-propanamine dimaleate salt, (“Compound II”) with a specific activity of 91 uCi/mg and chemical purity >99%, and non-radiolabeled dimaleate salt of N,N,-diethyl-8,8-dipropyl-2-azaspiro[4,5]decane-2-propanamine dimaleate (Compound 1) chemical purity >98%, respectively, were used in this study. The site of the radiocarbon label in Compound II is depicted by an asterisk in Formula II. The non-radiolabeled material was used for reference purposes. The radiolabeled material was stored at ca −80° C. in the dark and the non-radiolabeled material at ca −20° C. in the dark.
Three healthy male Sprague Dawley rats (Crl:CD(SD)BR), age ca 8-9 weeks, body weights at dosing 237-255 g, were supplied by Charles River (UK) Limited. The animals were housed in holding cages suitable for this species for 8 days prior to use. SDS Rat and Mouse Maintenance Diet No. 1, (Special Diets Services, Witham Essex), and mains quality water were available ad libitum throughout. The diet and water supplied to the animals were routinely analyzed for quality and no problems were detected. Holding and study areas had automatic control of light cycle and temperature. The actual range of temperature measured during the study was 17-25° C. with relative humidity measured at 60%.
The dose was prepared for oral administration on the day of dosing. […]
For each rat, an aliquot of the dose solution was administered orally by gavage. […] For each dose, the combined weight of dose and dosing equipment were recorded prior to dosing and the discharged dosing equipment was weighed after dosing. The concentration of radioactive material in each dose solution was also determined.
Immediately following dosing, the rats were placed into all glass metabolism cages suitable for the quantitative collection of excreta and expired air. All samples were collected into individual, uniquely labeled containers.
[…] The collection containers were cooled by solid CO2 during the first 48 hours after dosing.
[…] Collection containers were cooled by solid CO2 during the first 48 hours.
At the time of each feces collection, each cage was washed with water (ca 750 mL) and the washings were retained for radioassay. During the periods 0-24 h and 24-48 hours after dosing, expired air was passed through 2 serial traps containing ethanolamine:ethoxyethaonol (3:7, v/v) in order to effect the removal of CO2. The trap solvent was sampled for radioassay at the end of each collection period.
At 168 hours post dose, each animal was killed by CO2 narcosis and cervical dislocation. Gastrointestinal tracts were removed and retained separately from the carcasses in preparation for radioassay.
Duplicate aliquots of urine (ca 0.3 mL) and cage washings (ca 1 mL) were dispensed, diluted to 1 mL with distilled water (if considered necessary) and mixed with Quickzint 1 scintillation fluid (10 mL; Zinsser Analytic Maidenhead, UK).
Feces were homogenised in 1 to 2 volumes of water with the sample and homogenate weight recorded. Duplicate aliquots (ca 0.3 ) were taken from each sample and dispensed onto combustopads contained in combustocones (Canberra Packard Limited, Pangbourne, UK). When dry, these samples were combusted using a Packard Tri-Carb 306 Automatic Sample Oxidiser. The resultant ^14CO2 generated was collected by absorption in Carbo-Sorb® (8 mL; Canberra Packard Limited) to which Permafluor®E^+ scintillation fluid (10 mL; Canberra Packard Limited) was added.
For each rat, the carcass and gastro-intestinal tract with contents were solubilised in Soluene 350 (Canberra Packard). When dissolved, portions of the digest (ca 0.1 mL) were taken for liquid scintillation spectrometry. The volume was made up to 1 mL by the addition of methanol then 10 mL Quickzint was added and the samples counted as for the other liquid samples. […]

[1] = 168 hour collection period, #3 male

CCCC1(CCC)CCC2(CCN(CCCN(CC)CC)C2)CC1 [Compound II, [^14C] N,N,-diethyl-8,8-dipropyl-2-azaspiro[4,5]decane-2-propanamine dimaleate salt]
Excretion of Radioactivity, Urine (0-6 hours, #1 male): 0.1 | Excretion of Radioactivity, Urine (0-6 hours, #2 male): 0.1 | Excretion of Radioactivity, Urine (0-6 hours, #3 male): 0.1 | Excretion of Radioactivity, Cage Wash (0-24 hours, #1 male): 0.1 | Excretion of Radioactivity, Feces (0-24 hours, #1 male): 18.2 | Excretion of Radioactivity, Cage Wash (0-24 hours, #2 male): 0.1 | Excretion of Radioactivity, Feces (0-24 hours, #2 male): 14.7 | Excretion of Radioactivity, Cage Wash (0-24 hours, #3 male): *<0.1 | Excretion of Radioactivity, Feces (0-24 hours, #3 male): 17.7 | Excretion of Radioactivity, Cage Wash (0-24 hours, Mean): ^+0.1 | Excretion of Radioactivity, Feces (0-24 hours, Mean): 16.9 | Dose recovered in expired air (0-48 hours): Less than 0.2 % of the dose | Excretion of Radioactivity, Cage Wash (0-168 hours, #1 male): 0.7 | Excretion of Radioactivity, Feces (0-168 hours, #1 male): 64.0 | Excretion of Radioactivity, Urine (0-168 hours, #1 male): 6.9 | Excretion of Radioactivity, Cage Wash (0-168 hours, #2 male): 1.0 | Excretion of Radioactivity, Feces (0-168 hours, #2 male): 65.7 | Excretion of Radioactivity, Urine (0-168 hours, #2 male): 8.9 | Excretion of Radioactivity, Cage Wash (0-168 hours, #3 male): 1.3 | Excretion of Radioactivity, Feces (0-168 hours, #3 male): 66.7 | Excretion of Radioactivity, Urine (0-168 hours, #3 male): 9.8 | Excretion of Radioactivity, Cage Wash (0-168 hours, Mean): 1.0 | Excretion of Radioactivity, Feces (0-168 hours, Mean): 65.5 | Excretion of Radioactivity, Urine (0-168 hours, Mean): 8.5 | Excretion of Radioactivity, Urine (6-24 hours, #1 male): 0.4 | Excretion of Radioactivity, Urine (6-24 hours, #2 male): 0.5 | Excretion of Radioactivity, Urine (6-24 hours, #3 male): 0.5 | Excretion of Radioactivity, Urine (6-24 hours, Mean): 0.5 | Excretion of Radioactivity, Cage Wash (24-48 hours, #1 male): 0.1 | Excretion of Radioactivity, Feces (24-48 hours, #1 male): 16.3 | Excretion of Radioactivity, Urine (24-48 hours, #1 male): 1.0 | Excretion of Radioactivity, Cage Wash (24-48 hours, #2 male): <0.1 | Excretion of Radioactivity, Feces (24-48 hours, #2 male): 17.2 | Excretion of Radioactivity, Urine (24-48 hours, #2 male): 1.4 | Excretion of Radioactivity, Cage Wash (24-48 hours, #3 male): 0.1 | Excretion of Radioactivity, Feces (24-48 hours, #3 male): 14.5 | Excretion of Radioactivity, Urine (24-48 hours, #3 male): 1.4 | Excretion of Radioactivity, Cage Wash (24-48 hours, Mean): 0.1 | Excretion of Radioactivity, Feces (24-48 hours, Mean): 16.0 | Excretion of Radioactivity, Urine (24-48 hours, Mean): 1.3 | Excretion of Radioactivity, Cage Wash (48-72 hours, #1 male): <0.1 | Excretion of Radioactivity, Feces (48-72 hours, #1 male): 10.0 | Excretion of Radioactivity, Urine (48-72 hours, #1 male): 1.2 | Excretion of Radioactivity, Cage Wash (48-72 hours, #2 male): 0.2 | Excretion of Radioactivity, Feces (48-72 hours, #2 male): 15.2 | Excretion of Radioactivity, Urine (48-72 hours, #2 male): 1.5 | Excretion of Radioactivity, Cage Wash (48-72 hours, #3 male): 0.2 | Excretion of Radioactivity, Feces (48-72 hours, #3 male): 12.7 | Excretion of Radioactivity, Urine (48-72 hours, #3 male): 1.7 | Excretion of Radioactivity, Cage Wash (48-72 hours, Mean): 0.1 | Excretion of Radioactivity, Feces (48-72 hours, Mean): 12.6 | Excretion of Radioactivity, Urine (48-72 hours, Mean): 1.5 | Excretion of Radioactivity, Cage Wash (72-96 hours, #1 male): 0.1 | Excretion of Radioactivity, Feces (72-96 hours, #1 male): 7.5 | Excretion of Radioactivity, Urine (72-96 hours, #1 male): 1.3 | Excretion of Radioactivity, Cage Wash (72-96 hours, #2 male): 0.2 | Excretion of Radioactivity, Feces (72-96 hours, #2 male): 7.8 | Excretion of Radioactivity, Urine (72-96 hours, #2 male): 1.6 | Excretion of Radioactivity, Cage Wash (72-96 hours, #3 male): 0.3 | Excretion of Radioactivity, Feces (72-96 hours, #3 male): 8.0 | Excretion of Radioactivity, Urine (72-96 hours, #3 male): 2.0 | Excretion of Radioactivity, Cage Wash (72-96 hours, Mean): 0.2 | Excretion of Radioactivity, Feces (72-96 hours, Mean): 7.8 | Excretion of Radioactivity, Urine (72-96 hours, Mean): 1.6 | Excretion of Radioactivity, Cage Wash (96-120 hours, #1 male): 0.1 | Excretion of Radioactivity, Feces (96-120 hours, #1 male): 5.5 | Excretion of Radioactivity, Urine (96-120 hours, #1 male): 1.2 | Excretion of Radioactivity, Cage Wash (96-120 hours, #2 male): 0.2 | Excretion of Radioactivity, Feces (96-120 hours, #2 male): 4.1 | Excretion of Radioactivity, Urine (96-120 hours, #2 male): 1.5 | Excretion of Radioactivity, Cage Wash (96-120 hours, #3 male): 0.2 | Excretion of Radioactivity, Feces (96-120 hours, #3 male): 6.4 | Excretion of Radioactivity, Urine (96-120 hours, #3 male): 1.6 | Excretion of Radioactivity, Cage Wash (96-120 hours, Mean): 0.2 | Excretion of Radioactivity, Feces (96-120 hours, Mean): 5.3 | Excretion of Radioactivity, Urine (96-120 hours, Mean): 1.4 | Excretion of Radioactivity, Cage Wash (120-144 hours, #1 male): 0.1 | Excretion of Radioactivity, Feces (120-144 hours, #1 male): 3.5 | Excretion of Radioactivity, Urine (120-144 hours, #1 male): 0.9 | Excretion of Radioactivity, Cage Wash (120-144 hours, #2 male): 0.1 | Excretion of Radioactivity, Feces (120-144 hours, #2 male): 3.5 | Excretion of Radioactivity, Urine (120-144 hours, #2 male): 1.3 | Excretion of Radioactivity, Cage Wash (120-144 hours, #3 male): 0.3 | Excretion of Radioactivity, Feces (120-144 hours, #3 male): 4.3 | Excretion of Radioactivity, Urine (120-144 hours, #3 male): 1.3 | Excretion of Radioactivity, Cage Wash (120-144 hours, Mean): 0.2 | Excretion of Radioactivity, Feces (120-144 hours, Mean): 3.8 | Excretion of Radioactivity, Urine (120-144 hours, Mean): 1.2 | Excretion of Radioactivity, Urine (144-162 hours, #1 male): 0.8 | Excretion of Radioactivity, Urine (144-162 hours, #2 male): 1.0 | Excretion of Radioactivity, Urine (144-162 hours, #3 male): 1.2 | Excretion of Radioactivity, Urine (144-162 hours, Mean): 1.0 | Excretion of Radioactivity, Cage Wash (144-168 hours, #1 male): 0.2 | Excretion of Radioactivity, Feces (144-168 hours, #1 male): 3.0 | Excretion of Radioactivity, Cage Wash (144-168 hours, #2 male): 0.2 | Excretion of Radioactivity, Feces (144-168 hours, #2 male): 3.2 | Excretion of Radioactivity, Cage Wash (144-168 hours, #3 male): 0.2 | Excretion of Radioactivity, Feces (144-168 hours, #3 male): 3.1 | Excretion of Radioactivity, Cage Wash (144-168 hours, Mean): 0.2 | Excretion of Radioactivity, Feces (144-168 hours, Mean): 3.1 | Recovery of Radioactivity, Total (168 hour collection period, #1 male): 96.7 % administered dose | Recovery of Radioactivity, Total (168 hour collection period, #2 male): 103.0 % administered dose | Recovery of Radioactivity, Cage Washings [1]: *1.3 % administered dose | Recovery of Radioactivity, Total [1]: 103.2 % administered dose | Recovery of Radioactivity, Total (168 hour collection period, Mean): 101.0 % administered dose | Recovery of Radioactivity, Expired air 1 (#1 male): *<0.1 % administered dose | Recovery of Radioactivity, Expired air 2 (#1 male): *<0.1 % administered dose | Recovery of Radioactivity, Expired air 1 (#2 male): *<0.1 % administered dose | Recovery of Radioactivity, Expired air 2 (#2 male): *<0.1 % administered dose | Recovery of Radioactivity, Expired air 1 (#3 male): *<0.1 % administered dose | Recovery of Radioactivity, Expired air 2 (#3 male): *<0.1 % administered dose | Recovery of Radioactivity, Expired air 1 (Mean): ^+<0.1 % administered dose | Recovery of Radioactivity, Expired air 2 (Mean): ^+<0.1 % administered dose | Recovery of Radioactivity, Carcass (#1 male): 11.3 % administered dose | Recovery of Radioactivity, GI Tract (#1 male): 13.8 % administered dose | Recovery of Radioactivity, Carcass (#2 male): 14.1 % administered dose | Recovery of Radioactivity, GI Tract (#2 male): 13.3 % administered dose | Recovery of Radioactivity, Carcass (#3 male): 14.9 % administered dose | Recovery of Radioactivity, GI Tract (#3 male): 10.5 % administered dose | Recovery of Radioactivity, Carcass (Mean): ~13.5 % administered dose | Recovery of Radioactivity, GI Tract (Mean): ~12.5 % administered dose | Dose recovered in excreta and cage washings (mean, full 168 hour collection period): 75.0% | Administered radioactive dose recovered (total) (range over three rats, 168 hours): 96.7-103.2% | Dose recovered in the excreta (up to 120 hours after dosing): ~66 % of the dose
